Data on 18 compounds can be found in patent publication US9809553B2, “Isoquinoline compounds, a process for their preparation, and pharmaceutical compositions containing them” (LES LABORATOIRES SERVIER, priority 2014, dated 2017).

The subject of experiment [1] is arterial pressure of spontaneously hypertensive rats (SHR). As to the kind of experiment: Evaluation on the arterial pressure in spontaneously hypertensive rats (SHR), telemetry. Type of experiment: in vivo. The settings on record: SHR rat, maximum change of arterial pressure relative to basal. The protocol: The effect of the ROCK inhibitors was tested by the reduction of the arterial pressure (AP) that they induce in spontaneously hypertensive rats (SHR) after intravenous (i.v.) and/or oral administration. In summary, the SHRs were anaesthetised with 2% isoflurane, and a telemetry probe (PAC40, Data Science International) was implanted in the abdominal aorta to record the AP and a polyethylene catheter was implanted in the jugular vein for the i.v. administration. After recovery from the surgery (2 to 3 weeks), the AP was recorded continuously for 24 hours after administration of the ROCK inhibitors at doses of 1, 3, 10 and 30 mg/kg by the i.v. route and/or by the oral route. The effect on the AP was expressed as the percentage reduction relative to the basal arterial pressure before administration of the product.

For experiment [2], the system named is aortic segments of the rat (contraction induced by PHE). The experiment in a line: Functional test (rat aorta): vascular reactivity on aortic rings without endothelium contracted with phenylephrine. The settings on record: aortic rings without endothelium contracted with PHE 10^-6 M, read-out: Relaxation (rat aorta + PHE), IC50. From the text: Functional Test (Rat Aorta) Study of Vascular Reactivity on Aortic Segments of the Rat. After anaesthesia of the animal, the thoracic aorta is removed and immediately placed in a physiological saline solution (PSS). The proximal thoracic aorta is cleaned of adherent conjunctive tissue and 4 aortic rings (3-4 mm) are cut. The endothelium is removed mechanically without damaging the smooth muscle cells. The rings without endothelium are placed in PSS medium in isolated organ baths maintained at 37° C. in the presence of carbogen. The isometric tension of the rings is recorded by means of a force sensor. At their optimum tension, the rings are subjected to an equilibration period during which the physiological medium is replaced regularly. The preparations are then contracted twice by means of a hyperpotassic solution (KCl 60 mM), each of the 2 contractions being followed by successive washings in order to return to the original tension. The absence of endothelium is verified after contraction by an al-adrenergic receptor agonist, phenylephrine (PHE, 10^−6M), followed by the addition of carbachol (10^−5M), a muscarinic receptor agonist, which induces a relaxation only in the presence of endothelium. The rings are then washed regularly with PSS for 60 minutes in order to remove the pharmacological agents. The rings are recontracted with PHE (10^−6M) and then, after stabilisation of the contraction, the product or its solvent is added in cumulative concentrations, 5 concentrations are tested: 10M^−8, 10^−7M, 10^−6M, 10M^−5 and 3×10^−5M (if the product is dissolved in DMSO) or 10^−4M (if H2O is the solvent of the product). The contractile response is obtained in milligrams (mg). The results are expressed by the mean±SEM of the contractile responses obtained on at least 2 rats. The variations in tension of each product are calculated as a percentage of the maximum contraction induced by PHE before the product is added, according to the formula: % contraction B(t)=[×(mg) tension(compound)B(t)/y (mg) maximum tension (PHE)B]×100. The concentration-response curves obtained are analysed and allow the IC50 value of each product to be determined (IC50: concentration of product necessary to inhibit 50% of the maximum contraction induced by PHE), the estimation of the IC50 value of the concentration-response curves being obtained by non-linear regression.

For the next experiment, the target named is human ROCK1 (Homo sapiens, UniProt Q13464). The experiment in a line: ROCK1 enzymatic test (LANCE, phosphorylation of Ulight-RRRSLLE (PLK) substrate). The settings on record: human recombinant enzyme, 1 μM ATP, 50 nM Ulight-RRRSLLE (PLK) substrate, 30 minutes at ambient temperature; read-out: ROCK1(h), IC50. It counts as biochemical. As for the experimental part: Evaluation of the effects of compounds on human ROCK1 activity quantified by measuring the phosphorylation of the substrate Ulight-RRRSLLE (PLK) using a human recombinant enzyme and the LANCE® detection method.
human ROCK1, sequence (Q13464 whole entry): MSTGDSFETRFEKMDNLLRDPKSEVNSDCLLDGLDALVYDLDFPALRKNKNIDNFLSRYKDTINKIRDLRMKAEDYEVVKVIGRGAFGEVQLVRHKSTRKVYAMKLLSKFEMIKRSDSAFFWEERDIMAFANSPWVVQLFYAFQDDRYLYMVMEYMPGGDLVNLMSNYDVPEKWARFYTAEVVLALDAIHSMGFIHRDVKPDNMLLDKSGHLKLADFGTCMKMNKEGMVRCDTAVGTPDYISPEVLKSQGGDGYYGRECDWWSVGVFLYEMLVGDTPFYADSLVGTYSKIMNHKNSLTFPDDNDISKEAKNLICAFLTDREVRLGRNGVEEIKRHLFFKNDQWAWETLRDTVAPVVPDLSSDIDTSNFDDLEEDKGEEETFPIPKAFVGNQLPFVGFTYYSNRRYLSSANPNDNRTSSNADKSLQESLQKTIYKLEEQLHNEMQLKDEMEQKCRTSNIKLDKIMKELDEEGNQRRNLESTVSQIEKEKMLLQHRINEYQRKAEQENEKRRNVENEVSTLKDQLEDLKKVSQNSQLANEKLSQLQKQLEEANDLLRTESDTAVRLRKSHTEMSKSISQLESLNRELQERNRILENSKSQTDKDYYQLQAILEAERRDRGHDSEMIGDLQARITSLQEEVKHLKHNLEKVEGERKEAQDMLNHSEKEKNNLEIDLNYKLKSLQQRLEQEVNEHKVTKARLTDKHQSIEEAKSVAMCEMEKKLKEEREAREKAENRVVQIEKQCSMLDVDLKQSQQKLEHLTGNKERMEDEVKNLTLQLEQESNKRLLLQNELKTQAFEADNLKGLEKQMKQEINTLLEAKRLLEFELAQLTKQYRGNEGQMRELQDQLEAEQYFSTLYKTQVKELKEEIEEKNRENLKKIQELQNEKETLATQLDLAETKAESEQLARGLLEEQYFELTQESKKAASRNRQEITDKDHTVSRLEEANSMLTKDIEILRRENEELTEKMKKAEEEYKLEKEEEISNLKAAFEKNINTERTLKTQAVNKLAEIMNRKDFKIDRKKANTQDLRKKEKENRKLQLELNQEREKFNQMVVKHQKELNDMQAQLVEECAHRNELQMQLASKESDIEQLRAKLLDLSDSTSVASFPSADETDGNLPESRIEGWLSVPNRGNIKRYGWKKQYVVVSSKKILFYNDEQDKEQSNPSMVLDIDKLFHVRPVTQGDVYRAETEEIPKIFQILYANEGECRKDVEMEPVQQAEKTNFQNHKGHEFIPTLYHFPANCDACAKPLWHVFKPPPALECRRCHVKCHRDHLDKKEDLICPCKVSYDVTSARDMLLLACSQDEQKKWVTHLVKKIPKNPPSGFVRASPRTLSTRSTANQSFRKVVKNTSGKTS
The test compound, the reference compound or water (control) is mixed with the enzyme (8.2 ng) in a buffer comprising 40 mM Hepes/Tris (pH 7.4), 0.8 mM EGTA/Tris, 8 mM MgCl2, 1.6 mM DTT and 0.008% Tween 20.
The reaction is then started by adding 50 nM of Ulight-RRRSLLE (PLK) substrate and 1 μM of ATP, and the mixture is incubated for 30 minutes at ambient temperature. For the basal control measurements, the enzyme is excluded from the reaction mixture.
After the incubation, the reaction is stopped by adding 13 mM of EDTA. After 5 minutes, the anti-phospho-PLK antibody labelled with europium chelate is added. After a further 60 minutes, the fluorescence transfer is measured at lex=337 nm, lem=620 nm and lem=665 nm using a microplate reader (Envision, Perkin Elmer). The enzymatic activity is determined by dividing the signal measured at 665 nm by that measured at 620 nm (ratio). The results are expressed in the form of a percentage inhibition of the control enzymatic activity. The standard reference inhibition compound is staurosporine, which is tested in each experiment at several concentrations in order to obtain an inhibition curve on the basis of which the value of the IC50 (concentration that induces 50% inhibition) is calculated.
In general terms: Time-resolved FRET reads energy transfer from a long-lived donor to a nearby acceptor.

Where [3] appears, read: IV 3 mg/kg, read-out: SHR rat ΔAP % max, IV 3 mg/kg.
Where [4] appears, read: PO 3 mg/kg, read-out: SHR rat ΔAP % max, PO 3 mg/kg.

Each structure is given as a SMILES string. Structures can show the parent of a compound that is named as a salt. Where two headings read alike, the source gives them in different places.

Regarding `C[C@@H](N)c1ccc(F)c(C(=O)c2cccc3c(=O)[nH]ccc23)c1F` [Product P56, 5-{3-[(1R)-1-Aminoethyl]-2,6-difluorobenzoyl}isoquinolin-1(2H)-one hydrochloride], the change in vivo at 3 mg/kg in experiment [1] (setting [3]) was -54.7%. Besides, the values for the half-inhibitory concentration (IC50) (in experiment [2]; at human ROCK1) were 150 nM and 16.5 nM, respectively.

As to `CC(NCCO)c1cc(F)c(C(=O)c2cccc3c(=O)[nH]ccc23)c(F)c1` (centres unmarked) [Product P48, 5-(2,6-Difluoro-4-{1-[(2-hydroxyethyl)amino]ethyl}benzoyl)isoquinolin-1(2H)-one hydrochloride], the change in vivo at 3 mg/kg in experiment [1] (setting [3]) was -67.3%; in experiment [1] (setting [4]) it was -29.2%. The figures for the IC50 (in experiment [2]; at human ROCK1) were 150 nM and 7.45 nM, respectively.

`Cc1c[nH]c(=O)c2cccc(C(=O)c3c(F)cc([C@@H](C)N)cc3F)c12` [Product P50, 5-{4-[(1R)-1-Aminoethyl]-2,6-difluorobenzoyl}-4-methylisoquinolin-1(2H)-one hydrochloride]: the change in vivo at 3 mg/kg in experiment [1] (setting [3]) was -58%; in experiment [1] (setting [4]), -16.8%. Also, the IC50 in experiment [2] amounted to 100 nM; on human ROCK1, 5.4 nM.

With `C[C@@H](N)c1cc(F)c(C(=O)c2cccc3cnccc23)c(F)c1` [Product P9, {4-[(1R)-1-Aminoethyl]-2,6-difluorophenyl}(isoquinolin-5-yl)methanone dihydrochloride], the change in vivo at 3 mg/kg is -67% in experiment [1] (setting [3]) and -53.7% in experiment [1] (setting [4]). Besides, the concentration for half-maximal inhibition (IC50) in experiment [2] is 33 nM; on human ROCK1, 5.87 nM.

As to `NCC1CCOc2c(C(=O)c3cccc4c(=O)[nH]ccc34)cccc21` (centres unmarked) [Product P139, 5-{[4-(Aminomethyl)-3,4-dihydro-2H-chromen-8-yl]carbonyl}isoquinolin-1(2H)-one hydrochloride], the IC50 in experiment [2] worked out at 2000 nM; on human ROCK1 it was 87.5 nM.

As to `CC(N)c1cc(F)c(Cc2cccc3cnccc23)c(F)c1` (centres unmarked) [Product P19, 1-[3,5-Difluoro-4-(isoquinolin-5-ylmethyl)phenyl]ethanamine dihydrochloride], the change in vivo at 3 mg/kg in experiment [1] (setting [3]) was -39.6%. For the same compound, the IC50 in experiment [2] worked out at 230 nM; at human ROCK1, 63 nM.

Regarding `C[C@@H](N)c1ccc(C(=O)c2cccc3c(=O)[nH]ccc23)c2c1CCCO2` [Product P45, 5-({5-[(1R)-1-Aminoethyl]-3,4-dihydro-2H-chromen-8-yl}carbonyl)isoquinolin-1(2H)-one hydrochloride], the change in vivo at 3 mg/kg in experiment [1] (setting [3]) is -60.6%; in experiment [1] (setting [4]), -24%. Besides, the results for the IC50 (in experiment [2]; on human ROCK1) were 100 nM and 5 nM, respectively.

For `N[C@@H]1CCc2cc(F)c(C(=O)c3cccc4c(=O)[nH]ccc34)c(F)c21` [Product P59, 5-{[(3R)-3-Amino-4,6-difluoro-2,3-dihydro-1H-inden-5-yl]carbonyl}isoquinolin-1(2H)-one hydrochloride], the change in vivo at 3 mg/kg in experiment [1] (setting [3]) is -40.3%. The half-maximal inhibitory concentration (IC50) in experiment [2] turned out to be 550 nM; on human ROCK1, 1.95 nM.

In the case of `C[C@H](N)c1cc(F)c(C(O)c2cccc3cnccc23)c(F)c1` (single isomer, unassigned; enantiomer 1) [Product P21], in experiment [2], the IC50 stood at 1000 nM.

On to `NC(CC1CCCCC1)c1cc(F)c(C(=O)c2cccc3c(=O)[nH]ccc23)c(F)c1` (centres unmarked) [Product P129, 5-[4-(1-Amino-2-cyclohexylethyl)-2,6-difluorobenzoyl]isoquinolin-1(2H)-one hydrochloride], for which the change in vivo at 3 mg/kg in experiment [1] (setting [3]) was -30.2%; in experiment [1] (setting [4]), -18.4%. The IC50 in experiment [2] amounted to 2000 nM; on human ROCK1, 20.5 nM.

Take `CC(C)(N)c1cc(F)c(C(=O)c2cccc3cnccc23)c(F)c1` [Product P24, [4-(2-Aminopropan-2-yl)-2,6-difluorophenyl](isoquinolin-5-yl)methanone dihydrochloride]: the change in vivo at 3 mg/kg in experiment [1] (setting [3]) is -68.2%; in experiment [1] (setting [4]) it was -52.5%. Moreover, the 50% inhibitory concentration (IC50) worked out at 10 nM in experiment [2] and 23 nM at human ROCK1.

On to `O=C(c1c(F)cc(C2CCCCN2)cc1F)c1cccc2c(=O)[nH]ccc12` (centres unmarked) [Product P75, 5-[2,6-Difluoro-4-(piperidin-2-yl)benzoyl]isoquinolin-1(2H)-one hydrochloride], for which the change in vivo at 3 mg/kg in experiment [1] (setting [3]) is -49.8%; in experiment [1] (setting [4]), -12.4%. The IC50 was found to be 200 nM in experiment [2] and 10.4 nM on human ROCK1.

`CC(N)c1cc(F)c(C(=O)c2cccc3c(O)nccc23)c(F)c1` (centres unmarked) [Product P17, [4-(1-Aminoethyl)-2,6-difluorophenyl](1-hydroxyisoquinolin-5-yl)methanone hydrochloride]: the values for the change in vivo at 3 mg/kg in experiment [1] (setting [3]) and in experiment [1] (setting [4]) were -72.8% and -56.6%, respectively. Further, the 50% inhibitory concentration (IC50) in experiment [2] amounted to 14 nM; on human ROCK1, 4.2 nM.

For the compound `COc1c(C(C)N)ccc(C(=O)c2cccc3c(=O)[nH]ccc23)c1F` (centres unmarked) [Product P42, 5-[4-(1-Aminoethyl)-2-fluoro-3-methoxybenzoyl]isoquinolin-1(2H)-one hydrochloride], the change in vivo at 3 mg/kg in experiment [1] (setting [3]) was -59.9%; in experiment [1] (setting [4]), -12.3%. The IC50 was 200 nM in experiment [2] and 9.6 nM on human ROCK1.

Turning to `CC(C)(N)c1cc(F)c(C(=O)c2cccc3c(=O)[nH]ccc23)c(F)c1` [Product P27, 5-[4-(2-Aminopropan-2-yl)-2,6-difluorobenzoyl]isoquinolin-1(2H)-one hydrochloride], the change in vivo at 3 mg/kg in experiment [1] (setting [3]) was -69%; in experiment [1] (setting [4]) it was -54%. The IC50 was found to be 50 nM in experiment [2] and 8.7 nM on human ROCK1.

As for `C[C@@H](N)c1ccc(C(=O)c2cccc3c(=O)[nH]ccc23)c2c1OCCO2` [Product P61, 5-({8-[(1R)-1-Aminoethyl]-2,3-dihydro-1,4-benzodioxin-5-yl}carbonyl)isoquinolin-1(2H)-one hydrochloride], the change in vivo at 3 mg/kg in experiment [1] (setting [3]) is -59%. The figures for the IC50 (in experiment [2]; on human ROCK1) were 170 nM and 5.35 nM, respectively.

In the case of `CC(N)c1cc(F)c(C(=O)c2cccc3cnccc23)c(F)c1` (centres unmarked) [Product P6, [4-(1-Aminoethyl)-2,6-difluorophenyl](isoquinolin-5-yl)methanone dihydrochloride], the figures for the change in vivo at 3 mg/kg in experiment [1] (setting [3]) and in experiment [1] (setting [4]) were -73.4% and -35.6%, respectively. The IC50 in experiment [2] came to 200 nM.

On to `NC1CCc2c1cc(F)c(C(=O)c1cccc3c(=O)[nH]ccc13)c2F` (centres unmarked) [Product P58, 5-[(1-Amino-4,6-difluoro-2,3-dihydro-1H-inden-5-yl)carbonyl]isoquinolin-1(2H)-one hydrochloride], for which the change in vivo at 3 mg/kg is -65.1% in experiment [1] (setting [3]) and -52.7% in experiment [1] (setting [4]). For the same compound, the IC50 in experiment [2] came to 70 nM; on human ROCK1, 3.85 nM.

For orientation: IC50 means the concentration needed to halve the response being measured.
